# Paper PMC8847585, “Induction of senescence-associated secretory phenotype underlies the therapeutic efficacy of PRC2 inhibition in cancer” (Cell Death & Disease, 2022)
# Assays:
# H3K27me3 in HeLa cell = test: Inhibition of cellular H3K27me3 (western blot quantification); format: cell-based; conditions: Homo sapiens, 72 hr of treatment, n = 3
# Experimental: Cells were washed once with cold PBS and lysed by RIPA lysis buffer and incubated with 4 × SDS loading buffer at 95 °C for 10 min. Whole cell proteins were used for electrophoresis and then transferred to a nitrocellulose membrane. The membrane was blocked with Tris buffered saline containing 0.075% Tween-20 and 5% non-fat milk. Then the membranes were incubated with primary antibodies overnight at 4 °C. The next day, membranes were incubated with secondary antibodies for 1 h at room temperature.
# [1] = tested on: WSU-DLCL2 (EZH2-Y641F) cell; test: Anti-proliferation of lymphoma cell WSU-DLCL2, viable cell count; format: cell-based; conditions: Homo sapiens, WSUDLCL2, 216 h, read-out: IC50 of proliferation inhibition
# Experimental: (§1) Viable cell numbers were counted every 3 days up to 15 days by Vi-CELL (Beckman Coulter). For cell cycle analysis, MAK683 treated cells were fixed with pre-chilled 70% ethanol and kept at -20 degree overnight. On the second day, the cells were washed with cold PBS twice and collected by spin at 1000 rpm, digested with RNase A, then stained with 10 μg /mL Propidium Iodide in PBS solution for 30 min at room temperature. The stained cell samples were filtered through 70 μm cell strainer, and the staining signals were detected using flow cytometer (BD Fortessa). The acquired data were further analyzed by Modfit LT.
# A2780 cells = test: Cancer cell proliferation, viable cell count; format: cell-based; conditions: A2780 (ARID1A-deficiency), up to 15 days
# Experimental: as §1
# HeLa cells = test: Cancer cell proliferation, viable cell count; format: cell-based; conditions: up to 15 days
# Experimental: as §1
# MCAS cells = test: Cancer cell proliferation, viable cell count; format: cell-based; conditions: up to 15 days
# Experimental: as §1
# RD cells = test: Cancer cell proliferation, viable cell count; format: cell-based; conditions: up to 15 days
# Experimental: as §1
# A204 cells = test: Cancer cell proliferation, viable cell count; format: cell-based; conditions: A204 (SMARCB1 deficiency), up to 15 days
# Experimental: as §1
# G401 cells = test: Cancer cell proliferation, viable cell count; format: cell-based; conditions: G401 (SMARCB1 deficiency), up to 15 days
# Experimental: as §1
# G402 cells = test: Cancer cell proliferation, viable cell count; format: cell-based; conditions: G402 (SMARCB1 deficiency), up to 15 days
# Experimental: as §1
# Hs700T cells = test: Cancer cell proliferation, viable cell count; format: cell-based; conditions: Hs700T (SMARCA4-deficiency), up to 15 days
# Experimental: as §1
# p16 KO G401 cells = test: Proliferation of p16 KO G401 cells, viable cell count; format: cell-based; conditions: p16 KO G401 clones vs G401; MAK683 at 1 μM (proliferation), 3 μM 3 days (cell cycle)
# Experimental: as §1
# Two pairs of guide RNAs (Supplementary Table 1) targeting the exon2 of human CDKN2A (NM_000077) were designed using ChopChop website. gRNA oligos were synthesized, annealed and subcloned into the pSpCas9(BB)-2A-GFP (PX458). G401 and A2780 cell lines were transfected with the resultant plasmids, cultured for 48 h, and then applied to the single cell sorting for selecting GFP-positive cell by flow cytometer. Single cell clones were first cultured each well of 96-well plate, and then gradually expanded in larger cultures for further experiments. […]
# G401 xenograft tumors = test: Subcutaneous G401 xenograft tumor study; format: in vivo, mice
# Experimental: (§2) The animal study design and performance were evaluated and approved by Institutional Animal Care and Use Committee of ShanghaiTech University under the document number of 20201225001 and following the internationally recognized guidelines on animal welfare. To establish G401 xenograft models, WT G401 or p16 knock out cells were washed and resuspended in cold PBS and mixed with Matrigel at 1:1 (v/v) to reach the final ratio of 5 × 10^6 cells per 200 μL. Then the tumor cell mix were injected subcutaneously into the right flank of female Balb/c nude mice (5–6 weeks of age).
# (§3) When tumor volume reached around 60-350 mm^3, the mice were numbered and randomized into vehicle or 100 mg/kg MAK683 treatment groups. The random numbers were generated using Excel (Software). The mice with tumor size out of the range were not included in the study. Empirically, at least 6 mice were included for each group. For compound dosing, MAK683 was resolved and suspended in water with 0.5% HPMC and 0.5% Tween at the concentration of 10 mg/mL. Dosing without blinding took place very day in the morning around 8 am. Mice weight and tumor volumes are measured and recorded every 3 days. Tumor volumes were calculated based on perpendicular length and width caliper measurements using the following formula: tumor volume (mm^3) = 0.5 × (length × width^2).
# (§4) Tumor tissues were fixed in freshly-prepared 4% PFA for 24 hours, dehydrated through 30%, 50%, 70%, 85%, and 90% ethanol five-minute each, and 100% ethanol triple, permeabilized through xylene five-minute twice and then embedded in paraffin, and finally cut into 5 μm-thick sections. The sections were de-paraffinized with xylene for 10 min triple, rehydrated with ethanol from high to low concentration five minutes each and dH2O twice. […] After cool down to room temperature, endogenous peroxidase was inactivated with 3% H2O2 in methanol. Then the sections were washed with dH2O twice, blocked with 5% normal goat serum in PBS with 0.25% Triton X-100 for 1 hour at room temperature followed by primary antibodies incubation overnight at 4 °C. After HRP-conjugated secondary antibodies were incubated for 1 hours at room temperature, the sections were visualized with DAB. For quantification of Ki-67, H3K27me3 or ITGA2 positivity, the ratios of DAB positive cells to total cells in five representative fields were counted. For quantification of F4/80 positivity, the ratios of DAB positive area to total cells were counted. Five 40 × objective magnification fields per selection were counted and averaged.
# Cell senescence study was used by Beyotime in Situ β-galactosidase Staining Kit. Adherent cells were fix by fix-buffer for 15 min at room temperature and wash with PBS twice, then stain by stain-buffer mixture at 37 °C overnight. Frozen tissue sections were counterstained with eosin.
# p16 KO xenograft tumors = test: Subcutaneous p16 KO G401 xenograft tumor study; format: in vivo, mice
# Experimental: as §2, §3, §4
# Cell senescence study was used by Beyotime in Situ β-galactosidase Staining Kit. Adherent cells were fix by fix-buffer for 15 min at room temperature and wash with PBS twice, then stain by stain-buffer mixture at 37 °C overnight. […]
# [2] = Body weight of tumor-bearing animals; format: in vivo; conditions: 100 mg/kg daily, G401 xenograft-bearing mice, 25 days
# Experimental: as §3
# [3] = 100 mg/kg po qd, 25 days treatment
# [4] = WT G401 tumor, 100 mg/kg, continuous treatment 46 days, treatment endpoint
# [5] = p16 KO xenograft, 100 mg/kg, continuous treatment 46 days, treatment endpoint
compound,measurement,setting,value
CS(=O)(=O)c1ccc(-c2cnc(NCc3ccco3)n3cnnc23)cc1 [EED226],IC50,H3K27me3 in HeLa cell,210 nM
same,IC50,[1],35.9 nM
CCN(c1cc(-c2ccc(CN3CCOCC3)cc2)cc(C(=O)NCc2c(C)cc(C)[nH]c2=O)c1C)C1CCOCC1 [EPZ6438],Sensitivity of proliferation to treatment,A2780 cells,similarly inhibited the proliferation
same,Sensitivity of proliferation to treatment,HeLa cells,not sensitive
same,Sensitivity of proliferation to treatment,MCAS cells,not sensitive
same,Sensitivity of proliferation to treatment,RD cells,not sensitive
Cc1ncccc1-c1cnc(NCc2c(F)ccc3c2CCO3)n2cnnc12 [MAK683],IC50,H3K27me3 in HeLa cell,1.01 nM
same,IC50,[1],1.15 nM
same,Sensitivity of proliferation to treatment,A204 cells,sensitive
same,Sensitivity of proliferation to treatment,A2780 cells,moderately sensitive
same,Sensitivity of proliferation to treatment,G401 cells,sensitive
same,Sensitivity of proliferation to treatment,G402 cells,sensitive
same,Sensitivity of proliferation to treatment,HeLa cells,not sensitive
same,Sensitivity of proliferation to treatment,Hs700T cells,moderately sensitive
same,Sensitivity of proliferation to treatment,MCAS cells,not sensitive
same,Sensitivity of proliferation to treatment,RD cells,not sensitive
same,Response of p16 KO cells to induced cell cycle arrest and proliferation blockage,p16 KO G401 cells,partially resistant
same,TGI,G401 xenograft tumors; [3],67.20%
same,Tumor volume T/C%,G401 xenograft tumors; [3],30.55%
same,Ki-67 in treated tumors (IHC),"G401 xenograft tumors; 100 mg/kg po qd, day 25",significantly reduced
same,SA-β-gal activity in treated tumors,"G401 xenograft tumors; 100 mg/kg po qd, day 25",increased
same,H3K27me3 in treated tumors (IHC),"G401 xenograft tumors; 100 mg/kg po qd, day 25, 4 h post treatment",significantly decreased
same,T/C%,G401 xenograft tumors; [4],7.21%
same,TGI,G401 xenograft tumors; [4],91.25%
same,Ki67 positivity in tumors,"G401 xenograft tumors; WT tumors, 46 days",reduced
same,SA-β-gal signal in tumors,"G401 xenograft tumors; WT tumors, 46 days",increased
same,Ki67 positivity in tumors,"p16 KO xenograft tumors; p16 KO tumors, 46 days",reduced
same,T/C%,p16 KO xenograft tumors; [5],35.81%
same,TGI,p16 KO xenograft tumors; [5],54.18%
same,SA-β-gal signal in tumors,"p16 KO xenograft tumors; p16 KO xenografts, 46 days",unchanged
same,Animals' body weight,[2],unaffected
